The values that follow come from article PMC8222276 (Communications Biology, 2021).

What all share (assay type): cell-based
The target in test [1] is T1, CGRP receptor (CLR-RAMP1) in human cardiomyocytes (HCMs) (Homo sapiens, UniProt O60894+Q16602).
T1 construct: primary human cardiomyocytes (HCMs) since these cells only expressed CLR and RAMP1; host or cells: primary human cardiomyocytes (HCMs)
Briefly: ERK1/2 phosphorylation in HCMs. As for the experimental part: (§1) Data are analysed using a three-parameter non-linear regression curve or the operational model of receptor agonism. g, h Signalling bias plots were calculated as ∆Log(τ/KA) (g) or ∆∆Log(τ/KA) (h) for each agonist and for each signalling pathway. […] All data represent mean ± SEM for n repeats.
(§2) Primary cells were grown in 6 well plates, on the day of the experiment media was replaced with serum free media 4 h prior to cell harvesting. Tyrpsin-EDTA was used to dissociate the cells and they were collected by centrifugation, counted and re-suspended HBSS/BSA (0.1%). Ligands were also diluted in HBSS/BSA. Cells were then plated on 384 well plates in 8 μl aliquots at a density of 20,000 cells/well. Next, ligands were added (4 μl) for 5 min stimulation at room temperature. Cells were then lysed as per to the manufacturer’s instructions with 4 μl of lysis buffer (Cisbio phosphor-ERK1/2 cellular assay kit, Invitrogen, UK) for 30 min shaking at room temperature. The 2 specific antibodies; were pre-mixed in a 1:1 ratio. 4 μl of this was added to each well and the plate incubated for a further 2 h.
(§3) All sample sizes were determined, and data analysed, in accordance with the guidelines described by Curtis M et al.[65]. All experiments were appropriately controlled using ‘system pathway’ agonists. If any of these pathway controls generated inappropriate responses, then the entire data set was removed from analysis. […] Data analysis for cAMP accumulation, Ca^2+i mobilisation, NO accumulation, pERK1/2 activation, and cell proliferation assays were performed in GraphPad Prism 8.4 (GraphPad Software, San Diego). Data were fitted to obtain concentration–response curves using either the three-parameter logistic equation using to obtain values of Emax and pEC50 or the operational model of agonism. Statistical differences were analysed using one-way ANOVA followed by Dunnett’s post-hoc (for comparisons amongst more than two groups) or unpaired Student’s t test with Welch’s correction (for comparison between two groups). To account for the day-to-day variation experienced from the cultured cells, we used the maximal level of cAMP accumulation from cells in response to 100 μM forskolin stimulation was used as a reference, 10 μM ionomycin for Ca^2+i assays, 10 μM phorbol 12-myristate 13-acetate (PMA) for pERK1/2 activation, 10 μM acetylcholine for NO production and 10 μM VEGF for cell proliferation. […] Where appropriate the operational model for receptor agonism[27] was used to obtain efficacy (τ) and equilibrium disassociation constant (KA) values. In both cases, this normalisation removes the variation due to differences in days but retains the variance for control values. The means of individual experiments were combined to generate the curves shown. Having obtained values for τ and KA these were then used to quantify signalling bias as the change in Log(τ/KA)[19],[28]. Error for this composite measure was propagated by applying Eq. 1.1 PooledSEM=(SEMA)^2+(SEMB)^2 Where, SEMA and SEMB are the standard error of measurement A and B.

The target of test [2] is T2, CGRP receptor (CLR-RAMP1) in RAMP1-HUVECs (Homo sapiens, UniProt O60894+Q16602).
T2 construct: biased agonism at the endogenous CLR in a physiological system; the open reading frame of RAMP1 into our HUVEC∆RAMP2 cell line; host or cells: HUVEC-∆RAMP2 (CRISPR-Cas9 RAMP2 knockout pool), lentiviral transduction, blasticidin selection
T2 sequence (Q16602 23-461): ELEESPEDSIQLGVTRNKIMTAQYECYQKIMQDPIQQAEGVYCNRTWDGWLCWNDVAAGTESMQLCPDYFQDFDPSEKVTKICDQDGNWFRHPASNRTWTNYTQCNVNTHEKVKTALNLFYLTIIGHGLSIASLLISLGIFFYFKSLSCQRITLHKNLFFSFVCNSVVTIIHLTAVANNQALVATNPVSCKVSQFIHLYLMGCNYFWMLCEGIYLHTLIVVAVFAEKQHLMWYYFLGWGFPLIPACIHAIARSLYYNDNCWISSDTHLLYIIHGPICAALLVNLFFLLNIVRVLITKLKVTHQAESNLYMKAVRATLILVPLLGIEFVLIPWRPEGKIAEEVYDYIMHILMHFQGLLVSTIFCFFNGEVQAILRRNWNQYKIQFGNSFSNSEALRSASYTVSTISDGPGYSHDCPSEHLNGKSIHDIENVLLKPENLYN
T2 sequence (O60894 27-148): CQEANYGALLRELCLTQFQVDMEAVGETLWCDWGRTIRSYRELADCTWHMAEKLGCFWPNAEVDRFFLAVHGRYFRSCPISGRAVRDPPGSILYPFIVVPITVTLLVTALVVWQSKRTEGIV
Briefly: ERK1/2 phosphorylation in RAMP1-HUVECs. As for the experimental part: (§4) Data are analysed using a three-parameter non-linear regression curve or the operational model of receptor agonism. g–h Signalling bias plots were calculated as ∆Log(τ/KA) (g) or ∆∆Log(τ/KA) (h) for each agonist and for each signalling pathway. […] All data represent mean ± SEM for n repeats.
as §2
All sample sizes were determined, and data analysed, in accordance with the guidelines described by Curtis M et al.[65]. All experiments were appropriately controlled using ‘system pathway’ agonists. If any of these pathway controls generated inappropriate responses, then the entire data set was removed from analysis.

The target of test [3] is T2, CGRP receptor (CLR-RAMP1) in RAMP1-HUVECs. Briefly: mobilisation of Ca2+i in RAMP1-HUVECs. As for the experimental part: as §4
All cell lines were plated at 20,000 cells/well on 96-well black clear-bottom plates (Costar, UK) 24 h before the experiment. […] Cells were then washed twice with calcium-free HBSS, then were left in 100 μl calcium-free HBSS for the duration of the assay. […] Data was normalised to the response seen with 10 μM Ionomycin.
All sample sizes were determined, and data analysed, in accordance with the guidelines described by Curtis M et al.[65]. All experiments were appropriately controlled using ‘system pathway’ agonists. If any of these pathway controls generated inappropriate responses, then the entire data set was removed from analysis. […] Data analysis for cAMP accumulation, Ca^2+i mobilisation, NO accumulation, pERK1/2 activation, and cell proliferation assays were performed in GraphPad Prism 8.4 (GraphPad Software, San Diego). Data were fitted to obtain concentration–response curves using either the three-parameter logistic equation using to obtain values of Emax and pEC50 or the operational model of agonism. Statistical differences were analysed using one-way ANOVA followed by Dunnett’s post-hoc (for comparisons amongst more than two groups) or unpaired Student’s t test with Welch’s correction (for comparison between two groups).

In test [4] the target is T1, CGRP receptor (CLR-RAMP1) in human cardiomyocytes (HCMs). Briefly: mobilisation of Ca2+i in HCMs. As for the experimental part: as §1
All cell lines were plated at 20,000 cells/well on 96-well black clear-bottom plates (Costar, UK) 24 h before the experiment. […] Cells were then washed twice with calcium-free HBSS, then were left in 100 μl calcium-free HBSS for the duration of the assay. In conditions where Gαq/11/14 signalling is inhibited, cells were pre-treated with 100 nM YM-254890 (Alpha Laboratories, UK) (30 min)[22]. All assays were performed using the BD Pathway 855 Bioimaging Systems (BD Biosciences, UK), which dispenses ligands (20 μl) and reads immediately for 2 min. Data was normalised to the response seen with 10 μM Ionomycin.
as §3

The mark [5] stands for this setting: pERK1/2, HCM, operational model, mean ± SEM.
Setting [6] is: pERK1/2, RAMP1-HUVEC, operational model, mean ± SEM.
[7] abbreviates: Ca2+i, RAMP1-HUVEC, operational model, mean ± SEM.
The mark [8] stands for this setting: Ca2+i, HCM, operational model, mean ± SEM.

T1 sequence (Q16602 23-461): as the sequence (Q16602 23-461) above
T1 sequence (O60894 27-148): as the sequence (O60894 27-148) above

For the compound `CC[C@H](C)[C@H](NC(=O)[C@H](CCC(N)=O)NC(=O)[C@H](Cc1c[nH]cn1)NC(=O)[C@H](C)NC(=O)[C@H](CC(C)C)NC(=O)[C@H](CCCCN)NC(=O)[C@H](CCC(N)=O)NC(=O)[C@@H](NC(=O)[C@@H](NC(=O)[C@@H]1CSSC[C@H](NC(=O)CNC(=O)[C@H](Cc2ccccc2)NC(=O)[C@H](CO)NC(=O)[C@H](CCCNC(=N)N)NC(=O)[C@H](CC(C)C)NC(=O)CNC(=O)[C@H](CCC(N)=O)NC(=O)[C@H](Cc2ccccc2)NC(=O)[C@H](CC(N)=O)NC(=O)[C@H](CC(N)=O)NC(=O)[C@H](CCSC)NC(=O)[C@H](CO)NC(=O)[C@H](CCC(N)=O)NC(=O)[C@H](CCCNC(=N)N)NC(=O)[C@@H](N)Cc2ccc(O)cc2)C(=O)N[C@@H](CCCNC(=N)N)C(=O)N[C@@H](Cc2ccccc2)C(=O)NCC(=O)N[C@@H]([C@@H](C)O)C(=O)N1)[C@@H](C)O)C(C)C)C(=O)N[C@@H](Cc1ccc(O)cc1)C(=O)N[C@@H](CCC(N)=O)C(=O)N[C@@H](Cc1ccccc1)C(=O)N[C@H](C(=O)N[C@@H](CC(=O)O)C(=O)N[C@@H](CCCCN)C(=O)N[C@@H](CC(=O)O)C(=O)N[C@@H](CCCCN)C(=O)N[C@@H](CC(=O)O)C(=O)N[C@@H](CC(N)=O)C(=O)N[C@H](C(=O)N[C@@H](C)C(=O)N1CCC[C@H]1C(=O)N[C@@H](CCCNC(=N)N)C(=O)N[C@@H](CO)C(=O)N[C@@H](CCCCN)C(=O)N[C@H](C(=O)N[C@@H](CO)C(=O)N1CCC[C@H]1C(=O)N[C@@H](CCC(N)=O)C(=O)NCC(=O)N[C@@H](Cc1ccc(O)cc1)C(N)=O)[C@@H](C)CC)C(C)C)[C@@H](C)O` [AM, adrenomedullin], the Emax was found to be 40.1 ± 2.02% in test [1] (pERK1/2, HCM, 5 min, relative to 10 μM PMA, mean ± SEM, read-out: Emax); 47.6 ± 1.48% in test [2] (pERK1/2, RAMP1-HUVEC, 5 min, relative to 10 μM PMA, mean ± SEM, read-out: Emax); 44.1 ± 1.42% in test [3] (Ca2+i, RAMP1-HUVEC, relative to 10 μM ionomycin, mean ± SEM, read-out: Emax); 58.12 ± 0.15% in test [4] (Ca2+i, HCM, relative to 10 μM ionomycin, mean ± SEM, read-out: Emax).

With `CSCC[C@H](NC(=O)[C@H](CC(C)C)NC(=O)[C@H](CCC(N)=O)NC(=O)[C@H](Cc1c[nH]c2ccccc12)NC(=O)[C@H](CC(C)C)NC(=O)[C@H](CCCNC(=N)N)NC(=O)[C@H](Cc1c[nH]cn1)NC(=O)[C@H](CO)NC(=O)[C@H](CC(C)C)NC(=O)[C@H](CC(N)=O)NC(=O)[C@H](CCC(N)=O)NC(=O)[C@@H](NC(=O)[C@H](CCC(N)=O)NC(=O)[C@@H]1CSSC[C@H](NC(=O)CNC(=O)[C@@H](NC(=O)[C@H](CCCNC(=N)N)NC(=O)[C@H](CC(C)C)NC(=O)[C@H](CC(C)C)NC(=O)[C@H](CCC(N)=O)NC(=O)[C@H](C)NC(=O)[C@H](CCC(N)=O)NC(=O)[C@@H](N)[C@@H](C)O)C(C)C)C(=O)N[C@@H](C(C)C)C(=O)N[C@@H](CC(C)C)C(=O)NCC(=O)N[C@@H]([C@@H](C)O)C(=O)N1)C(C)C)C(=O)NCC(=O)N1CCC[C@H]1C(=O)N[C@@H](C)C(=O)NCC(=O)N[C@@H](CCCNC(=N)N)C(=O)N[C@@H](CCC(N)=O)C(=O)N[C@@H](CC(=O)O)C(=O)N[C@@H](CO)C(=O)N[C@@H](C)C(=O)N1CCC[C@H]1C(=O)N[C@H](C(=O)N[C@@H](CC(=O)O)C(=O)N1CCC[C@H]1C(=O)N[C@@H](CO)C(=O)N[C@@H](CO)C(=O)N1CCC[C@H]1C(=O)N[C@@H](Cc1c[nH]cn1)C(=O)N[C@@H](CO)C(=O)N[C@@H](Cc1ccc(O)cc1)C(N)=O)C(C)C` [AM2, adrenomedullin 2], the Emax is 40.4 ± 4.17% in test [1], 45.4 ± 2.89% in test [2], 41 ± 2.26% in test [3] and 36.5 ± 2.31% in test [4]. Moreover, the “Transducer coefficient Log(τ/KA)” value is 5.32±0.20 in test [1] (pERK1/2, HCM, calculated from Table S2); 6.50±0.15 in test [2] (pERK1/2, RAMP1-HUVEC, calculated from Table S2); 5.46±0.19 in test [3] (Ca2+i, RAMP1-HUVEC, calculated from Table S2); 7.61±0.35 in test [4] (Ca2+i, HCM, calculated from Table S2). In addition, the logτ in test [1] (setting [5]) is reported as -0.20±0.08; in test [2] (setting [6]), -0.06±0.05; in test [3] (setting [7]), -0.18±0.06; in test [4] (setting [8]) it was -0.30±0.05. In addition, the pKA turned out to be 5.52±0.18 in test [1] (setting [5]), 6.56±0.14 in test [2] (setting [6]), 5.64±0.18 in test [3] (setting [7]) and 7.91±0.35 in test [4] (setting [8]).

For orientation: Emax means the size of the effect at its maximum, as opposed to the concentration needed.
